From PubChem BioAssay (NCI)
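A five-concentration, 48-hour dose response in 96-well plates underlies each endpoint, interpolated linearly between surrounding concentrations. Abbreviation: GI50, concentration required for 50% inhibition of growth. TGI: concentration producing complete growth inhibition.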

How the values were obtained:
Experiment in all cases: DTP human tumour cell line panel, 48 h
[1] = tested on: 786-0 renal
[2] = tested on: SN12C renal
[3] = tested on: DU-145 prostate
[4] = tested on: HT29 colon
[5] = tested on: CAKI-1 renal
[6] = tested on: OVCAR-8 ovarian
[7] = tested on: K-562 leukemia
[8] = tested on: HCC-2998 colon
[9] = tested on: RXF 393 renal
[10] = tested on: BT-549 breast

Row | Compound | GI50 [1] [µM] | TGI [1] [µM] | GI50 [2] [µM] | TGI [2] [µM] | GI50 [3] [µM] | TGI [3] [µM] | GI50 [4] [µM] | TGI [4] [µM] | GI50 [5] [µM] | TGI [5] [µM] | GI50 [6] [µM] | TGI [6] [µM] | GI50 [7] [µM] | TGI [7] [µM] | GI50 [8] [µM] | TGI [8] [µM] | TGI [9] [µM] | GI50 [10] [µM] | TGI [10] [µM]
1 | CN1c2ccccc2C(C)(C)C12C=Cc1cc(O)ccc1O2 (configuration not stated) | 2.77 | 8.96 | 3.19 | 17.2 | 2.56 | 8.17 | 3.33 | 11.6 | 3.37 | 12.4 | 3.16 | 12.9 | 3.09 | > 100 | 4.22 | 9.47 | – | – | –
2 | COCCCNC(=O)CC(=O)NCCCOC | – | > 100 | – | > 100 | – | – | – | > 100 | – | – | – | > 100 | – | > 100 | – | > 100 | > 100 | – | –
3 | O=C(Cc1nc2ccccc2s1)Nc1cccc(C(F)(F)F)c1 | – | 27.2 | – | 29.7 | – | – | – | 33.9 | – | 31.6 | – | 38.1 | – | 29.8 | – | 29.4 | 32.3 | – | –
4 | COC(=O)CCC(=O)CC(=O)C(=O)Nc1c(Cl)cc([N+](=O)[O-])cc1Cl | – | > 100 | – | > 100 | – | – | – | > 100 | – | > 100 | – | > 100 | – | > 100 | – | > 100 | > 100 | – | –
5 | CN1CCN(c2ccc3nc(-c4ccc5nc(-c6ccc(OCCC(C)(C)C)cc6)[nH]c5c4)[nH]c3c2)CC1 | 2.7 | 8.33 | 4 | 15.4 | 1.83 | 3.4 | 1.78 | 4.07 | 4.15 | 15.7 | 4.69 | 18.6 | – | – | 5.06 | 18.5 | – | 17.5 | 40.1
6 | CS(=O)(=O)N(N(CCCl)S(=O)(=O)c1ccccc1)S(C)(=O)=O | – | > 100 | – | > 100 | – | – | – | > 100 | – | > 100 | – | > 100 | – | > 100 | – | > 100 | > 100 | – | –
7 | CN(C)CCNC(=O)c1cccc2c1nc(-c1ccccc1)c1ccccc12 | – | 16.6 | – | 15.2 | – | – | – | 13.1 | – | 18.4 | – | 19.6 | – | 6.32 | – | 15.9 | 9.43 | – | –
8 | O=CC[C@H]1CCc2ccccc2C12CCC(=O)CC2 | – | > 100 | – | > 100 | – | – | – | > 100 | – | > 100 | – | > 100 | – | > 100 | – | > 100 | – | – | –
9 | COc1cc2c3c(c1OC)-c1c(ccc4c1OCO4)CC3(C#N)N(C(=O)c1ccccc1)CC2 (configuration not stated) | – | > 100 | – | > 100 | – | – | – | > 100 | – | > 100 | – | > 100 | – | > 100 | – | – | > 100 | – | –
10 | CC1(C)Cc2cc(C(=O)O)c3c(c2C1=O)COCC3 | – | > 100 | – | > 100 | – | – | – | > 100 | – | > 100 | – | > 100 | – | > 100 | – | > 100 | > 100 | – | –
11 | O=C(Nc1nc2ncn(CCNCc3ccccc3)c2c(=O)[nH]1)c1ccccc1 | – | > 100 | – | > 100 | – | – | – | > 100 | – | > 100 | – | > 100 | – | > 100 | – | > 100 | > 100 | – | –
12 | CCOC(=O)C1=C(C)N(c2ccc(C)cc2)C2=C(C(=O)N(c3ccccc3)C2c2ccccc2)C1c1ccccc1 (configuration not stated) | – | > 25 | – | > 25 | – | – | – | > 25 | – | – | – | > 25 | – | > 25 | – | > 25 | > 25 | – | –
13 | O=C(O)/C(=C/C=C/c1ccccc1)c1csc(-c2nc(/C(=C\C=C\c3ccccc3)C(=O)O)cs2)n1 | – | 56.1 | – | > 100 | – | – | – | > 100 | – | – | – | > 100 | – | 54.6 | – | 59.7 | 82.4 | – | –
14 | COc1ccc(/C(C#N)=C/c2ccc(OC)c(OC)c2)cc1 | – | > 100 | – | > 100 | – | > 100 | – | > 100 | – | > 100 | – | > 100 | – | > 100 | – | > 100 | > 100 | – | –
15 | COc1ccc(/C=c2\sc3n(c2=O)C(N)=C(C#N)C(c2ccc(OC)cc2)C=3c2nc3ccccc3[nH]2)cc1 (configuration not stated) | – | > 100 | – | > 100 | – | – | – | – | – | 42.9 | – | – | – | > 100 | – | 64.3 | – | – | –
16 | CCCCCCCCCc1cccc(N2C(N)=NC(N)=NC2(C)C)c1 | – | 1.3 | – | 2.33 | – | 8.4 | – | 1.33 | – | 2.5 | – | 16 | – | – | – | – | > 100 | – | 3.86
17 | CC(C)(C)c1cc2c3c(c1)C(C(F)(F)F)(C(F)(F)F)O[Te]3(C)OC2(C(F)(F)F)C(F)(F)F | – | > 100 | – | > 100 | – | – | – | > 100 | – | > 100 | – | – | – | > 100 | – | > 100 | > 100 | – | –
18 | COc1cc2c(cc1C)NC(=O)/C2=C\c1cccc(Oc2ccccc2)c1 | 13.2 | 25.9 | 13.2 | 25.9 | 13.5 | 27 | 12.1 | 26.1 | 19.4 | 41.2 | 25.1 | > 100 | 9.83 | 39.1 | 11.6 | 24.4 | – | 12.8 | 27.9
19 | CC(=O)c1ccc(NC(=O)C(=O)Nn2c(=S)[nH]c3ccccc3c2=O)cc1 | – | > 100 | – | > 100 | – | – | – | > 100 | – | > 100 | – | > 100 | – | > 100 | – | > 100 | > 100 | – | –
20 | O=[N+]([O-])c1cccc(C2ON2C2CCCCC2)c1 (configuration not stated) | – | 31.2 | – | 36 | – | – | – | 28 | – | 58.7 | – | 32.8 | – | 60.3 | – | 30.9 | – | – | –
21 | O=C(CCC(=O)C(C(=O)c1ccccc1)c1ccccc1)Nc1cccc(C(F)(F)F)c1 (configuration not stated) | – | > 100 | – | > 100 | – | – | – | > 100 | – | > 100 | – | > 100 | – | > 100 | – | > 100 | – | – | –
22 | O=[N+]([O-])c1cccc(-c2oc(C=Nc3ccccc3)c([N+](=O)[O-])c2-c2cccc([N+](=O)[O-])c2)c1 | – | > 100 | – | – | – | – | – | > 100 | – | – | – | > 100 | – | > 100 | – | > 100 | > 100 | – | –
23 | Cc1occc1C(=S)Nc1ccc(Cl)c(C(=O)OC(C)C2CC2)c1 (configuration not stated) | – | 52.5 | – | 41.6 | – | > 100 | – | 49 | – | 48.8 | – | 43.2 | – | – | – | 39.5 | 39.4 | – | 54.5
24 | CCc1cccc(C(C)C)c1N1C(=O)C(=O)C(c2nc3ccccc3s2)C(=O)C1=O | – | > 50 | – | > 50 | – | – | – | > 50 | – | > 50 | – | > 50 | – | > 50 | – | > 50 | > 50 | – | –
